# Measured values: patent US20130178453A1, “Cannabinoid Agonists” (priority 2010, published 2013)
# Values joined by “and” are separate entries in the source; they are usually repeats but may differ in a detail not shown here. Identical values can stand only once.
# Key:
# [1] = biological target: T1, hCB1 (Homo sapiens, UniProt P21554); assay: hCB1 GTPγS agonist assay (HEK-293 membranes); type: biochemical
# Text: cDNA expression clones for human CB 1 (hCB1, Genbank Accession No. AY225225) and human CB2 (hCB2, Genbank Accession No. AY242132) expressed in vector pcDNA3.1+ were purchased from UMR cDNA Resource Center, Rolla, Mo. (Clone ID CNR01L000 for hCB1; CNR0200000 for hCB2).
# Stable, HEK-293-derived cell lines that recombinantly express hCB1 or hCB2 were established. In brief, the clone hCB1 (CNR1L) or hCB2 (CNR2) was transfected into human embryonic kidney cells (HEK-293) using Lipofectamine 2000 (Gibco, Cat#11668-019) according to the manufacturer's protocol. Transfected clones were isolated by single colony purification and clones were screened for receptor expression using a whole cell, ^3H—CP 55,940 radioligand binding assay. HEK-293 stable cells were maintained in Dulbecco's modified Eagles medium (DMEM) containing 10% fetal bovine serum, 2 mM L-glutamine and 0.5 mg/mL G-418.
# Membranes were isolated from transfected cells as follows. Monolayers of cultured cells were washed twice with phosphate-buffered saline (PBS). Cells were scraped into 20 mM HEPES, pH 7.4, 10 mM EDTA containing complete cocktail protease inhibitors (Roche, Catalog #11 697 498 001), and were homogenized by an electric-powered mechanical probe homogenizer (Omni GLH; probe G7-195S) for 40 seconds at 7000 rpm. Homogenates were centrifuged 10 minutes at 1000×g at 4° C. The supernatant was collected and was centrifuged for 1 hour at 40,000×g. The supernatant was then decanted and the resulting pellet was re-suspended in 20 mM HEPES, pH 7.4, 5 mM MgCl2, 1 mM EDTA, 10% sucrose with complete cocktail protease inhibitors. Protein concentration of membrane suspensions were measured by Bradford Protein Assay using bovine serum albumin as the standard (BioRad catalog #500-0006). Protein concentrations of membrane suspensions were adjusted with the final buffer in the range of 5 to 10 mg/mL and were stored at −80° C. until further use.
# ^35S GTPγS binding assays were performed by incubating recombinant cell membranes prepared above (5 μg) in the presence of scintillation proximity assay beads (SPA beads, Catalog #RPNQ0252 GE Healthcare, Buckinghamshire, England) in GTPγS binding buffer [50 mM HEPES (pH 7.4), 100 mM NaCl, 5 mM MgCl2, 0.001% saponin (Sigma catalog #S4521)] supplemented with 20 uM GDP (Sigma catalog #G7127) in the presence or absence of test compound. The reaction was carried out in 96-well microplates with 0.1 nM [^35S]GTPγS (specific activity=1250 Ci/mmol; Perkin Elmer catalog #NEG030X250UC) in a final volume of 100 μL. After a 90 min room temperature incubation, the reaction was analyzed using a scintillation counter (Perkin Elmer Microbeta instrument). Binding data were analyzed using GraphPad Prism.
# [2] = biological target: T1, hCB1; assay: hCB1 radioligand binding assay ([3H]-CP 55,940 displacement); settings: hCB1 IC50 (CP displ, nM, HEK), HEK membranes
# Outline: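 Membranes from stable HEK-293 cells expressing recombinant hCB1 (2-10 μg protein) incubated 90 minutes at room temperature with 0.5 nM [3H]-CP 55,940 in 50 mM Tris-HCl pH 7.5, 5 mM MgCl2, 2.5 mM EDTA, 0.1% fatty acid free BSA. Filtration then scintillation counting; nonspecific binding with 1 μM unlabelled CP 55,940.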
# [3] = biological target: T2, hCB2 (Homo sapiens, UniProt P34972); assay: hCB2 GTPγS agonist assay (HEK-293 membranes); type: biochemical
# T2 sequence (P34972 whole entry): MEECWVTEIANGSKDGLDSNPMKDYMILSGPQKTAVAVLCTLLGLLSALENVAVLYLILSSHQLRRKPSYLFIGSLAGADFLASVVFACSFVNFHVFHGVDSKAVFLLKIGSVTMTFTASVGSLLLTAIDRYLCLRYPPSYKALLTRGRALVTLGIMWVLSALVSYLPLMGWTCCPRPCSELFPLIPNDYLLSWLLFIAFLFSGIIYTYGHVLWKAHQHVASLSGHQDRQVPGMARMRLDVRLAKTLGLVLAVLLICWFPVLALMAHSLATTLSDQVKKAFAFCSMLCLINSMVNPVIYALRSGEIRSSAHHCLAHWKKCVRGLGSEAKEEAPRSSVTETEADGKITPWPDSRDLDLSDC
# Outline: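 Membranes from HEK-293 cells transfected with human CB2 (5 μg) incubated with SPA beads, 0.1 nM [35S]GTPγS and 20 uM GDP in 50 mM HEPES pH 7.4, 100 mM NaCl, 5 mM MgCl2, 0.001% saponin. Incubation 90 min at room temperature. Agonist-stimulated binding read by scintillation counting.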
# [4] = biological target: T2, hCB2; assay: hCB2 cAMP agonist assay (HEK-293 cells); type: cell-based
# Outline: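 HEK-293 cells stably expressing hCB2, treated 30 min at 37° C with compound in HBSS/10 mM HEPES/0.1% BSA alongside forskolin (90 uM in the 3× solution, not final).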
# [5] = biological target: T2, hCB2; assay: hCB2 radioligand binding assay ([3H]-CP 55,940 displacement); settings: hCB2 IC50 (CP displ, nM, HEK), HEK membranes
# Outline: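 Membranes from cells transfected with human CB2 cDNA (pcDNA3.1+), kept in 20 mM HEPES pH 7.4, MgCl2, EDTA, sucrose with protease inhibitors.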
# [6] = biological target: T1, hCB1; assay: hCB1 cAMP agonist assay (HEK-293 cells); type: cell-based
# [7] = GTPγS agonist, HEK membranes, read-out: hCB1 EC50 (GTPyS ag, nM, HEK)
# [8] = cAMP agonist, HEK, 96-well, read-out: hCB1 EC50 (cAMP ag, nM, HEK (96-well))
# T1 sequence (P21554 whole entry): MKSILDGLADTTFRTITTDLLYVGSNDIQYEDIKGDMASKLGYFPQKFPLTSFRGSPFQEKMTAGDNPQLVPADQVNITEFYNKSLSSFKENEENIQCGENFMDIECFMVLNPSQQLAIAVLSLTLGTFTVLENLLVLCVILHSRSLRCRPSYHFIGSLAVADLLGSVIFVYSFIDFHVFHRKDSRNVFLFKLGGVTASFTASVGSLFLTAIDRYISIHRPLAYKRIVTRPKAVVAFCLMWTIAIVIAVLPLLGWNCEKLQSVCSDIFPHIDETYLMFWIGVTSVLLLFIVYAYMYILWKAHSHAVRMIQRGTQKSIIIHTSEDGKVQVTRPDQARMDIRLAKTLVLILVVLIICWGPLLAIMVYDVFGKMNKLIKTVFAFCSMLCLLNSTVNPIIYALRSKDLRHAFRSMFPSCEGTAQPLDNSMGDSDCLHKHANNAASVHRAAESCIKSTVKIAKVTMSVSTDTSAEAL
SMILES,"EC50 [1, 7]",IC50 [2],EC50 [3],EC50 [4],IC50 [5],EC50 [1],EC50 [6],"EC50 [6, 8]","EC50 ([6]; cAMP agonist, HEK, 24-well, read-out: hCB1 EC50 (cAMP ag, nM HEK (24-well)))"
CCCn1c(C(=O)c2c(C)n(CCN3CCOCC3)c3sccc23)cc2ccccc21 [Compound I-11],100 to 1000 nM,< 100 nM,< 100 nM,< 100 nM,< 100 nM,,,,
CCn1c(C(=O)c2cn(CC3CCOCC3)c3ccccc23)cc2ccsc21 [Compound I-16],,< 100 nM,< 100 nM,< 100 nM,< 100 nM,< 100 nM,< 100 nM,,
CCn1c(C(=O)c2cn(CCCNS(C)(=O)=O)c3ccccc23)cc2ccsc21 [Compound I-28],1000 to 10000 nM,100 to 1000 nM,< 100 nM,< 100 nM,< 100 nM,,,100 to 1000 nM,
CCCn1cc(C(=O)c2cc3ccsc3n2CC)c2cccnc21 [Compound I-34],,1000 to 10000 nM,< 100 nM,< 100 nM,< 100 nM,100 to 1000 nM,1000 to 10000 nM,,
CCCn1c(C(=O)c2cn(CC3CCOCC3)c3ccccc23)cc2ccsc21 [Compound I-41],,< 100 nM,< 100 nM,< 100 nM,< 100 nM,< 100 nM,< 100 nM,,
CCCn1c(C(=O)c2cn(CC)c3ccccc23)cc2ccsc21 [Compound I-42],100 to 1000 nM,< 100 nM,< 100 nM,< 100 nM,< 100 nM,,,100 to 1000 nM,
CCCn1cc(C(=O)c2cc3ccsc3n2CCC)c2cccnc21 [Compound I-45],,< 100 nM and 100 to 1000 nM,< 100 nM,< 100 nM,< 100 nM,100 to 1000 nM,100 to 1000 nM,,
CCCn1c(C(=O)c2c(C)n(CCC3CCOCC3)c3ccccc23)cc2ccsc21 [Compound I-57],,100 to 1000 nM,< 100 nM,< 100 nM,< 100 nM,100 to 1000 nM,100 to 1000 nM,,
CCCCCn1c(C)c(C(=O)c2cc3ccsc3n2CCC)c2ccccc21 [Compound I-60],,< 100 nM,< 100 nM,< 100 nM,< 100 nM,100 to 1000 nM,< 100 nM,,
CCCn1cc(C(=O)c2cc3ccsc3n2CCC)c2ccccc21 [Compound I-62],,< 100 nM,< 100 nM,< 100 nM,< 100 nM,100 to 1000 nM,< 100 nM,,
CCCn1c(C(=O)c2c(C)n(CC3CCOCC3)c3ccccc23)cc2ccsc21 [Compound I-66],,100 to 1000 nM,< 100 nM,< 100 nM,< 100 nM,100 to 1000 nM,< 100 nM,,
CCCn1cc(C(=O)c2cc3ccsc3n2CC)c2ccccc21 [Compound I-70],,100 to 1000 nM,< 100 nM,< 100 nM,< 100 nM,100 to 1000 nM,100 to 1000 nM,,
CCCn1c(C(=O)c2c(C)n(CCC)c3sccc23)cc2ccsc21 [Compound I-83],100 to 1000 nM,,,< 100 nM,,,,< 100 nM,< 100 nM
CCCn1c(C(=O)c2c(C)[nH]c3sccc23)cc2ccsc21 [Compound I-84],> 10000 nM,,,,,,,< 100 nM,
CCn1c(C(=O)c2c3c(n(CC4CCOCC4)c2C)CCCC3)cc2ccsc21 [Compound I-86],100 to 1000 nM,< 100 nM,< 100 nM,< 100 nM,< 100 nM,,,100 to 1000 nM,
